Experimental data from EP3156398A1, “AGONISTS OF THE CHEMOKINE RECEPTOR CXCR3” (Friedrich-Alexander-Universität Erlangen-Nürnberg, priority 2015, dated 2017).
“Also recorded” adds a separate entry of the source.

Assays:
CXCR3 = biological target: T1, CXCR3 (Homo sapiens, UniProt P49682); assay: [35S]GTPγS incorporation assay; type: biochemical; conditions: for CXCR3 Efficacy (%) ± SEM: % of CXCL11 mediated effect; for CXCR3 Efficacy (%) ± SEM / CXCR3 pEC50 ± SEM: membrane preparations of HEK293T stably expressing CXCR3; for CXCR3 mediated G protein activation (result in words): [35S]GTPγS incorporation; for CXCR3 pEC50 ± SEM: mean of three experiments in triplicate
T1 construct: expressed in transfected cells; host or cells: HEK293 / HEK293T cells, stably transfected; membrane preparations
T1 sequence (P49682 1-368): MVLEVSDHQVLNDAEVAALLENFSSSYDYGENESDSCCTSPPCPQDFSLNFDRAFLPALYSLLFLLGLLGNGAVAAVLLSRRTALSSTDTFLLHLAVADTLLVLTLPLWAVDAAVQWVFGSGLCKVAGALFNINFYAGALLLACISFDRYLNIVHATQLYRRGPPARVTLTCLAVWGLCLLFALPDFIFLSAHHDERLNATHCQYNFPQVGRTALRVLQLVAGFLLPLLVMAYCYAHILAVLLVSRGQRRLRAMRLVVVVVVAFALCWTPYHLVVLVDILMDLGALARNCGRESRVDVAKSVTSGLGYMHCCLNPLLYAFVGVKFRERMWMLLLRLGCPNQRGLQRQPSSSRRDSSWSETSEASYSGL
How it was run: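 Membranes from HEK293 cells stably expressing human CXCR3 (30 µg/mL protein) preincubated 30 min at 37 °C with test compound, CXCL11 and 1 µM GDP in HEPES/MgCl2/NaCl/saponin buffer, pH 7.4. Then 0.10 nM [35S]GTPγS added for 30 min at 37 °C; filter-bound radioactivity counted, triplicates, 3–4 experiments.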

FLAG-CXCR3 = biological target: T2, FLAG-CXCR3 (Homo sapiens, UniProt P49682); assay: ELISA based internalization assay; type: cell-based; conditions: CXCL11 100 nM, modulators 10 µM, 1h at 37°C; Figure 4B
T2 construct: expressed in transfected cells; host or cells: HEK293T cells, transient
T2 sequence (P49682 1-368): T1 sequence (P49682 1-368)
Description: Enzyme-linked immunosorbent assay based internalization assay. The day after transfection with FLAG-CXCR3, cells were trypsinized, resuspended into fresh culture medium and plated in poly(D-lysine)-coated 48-well assay plates. 48h after transfection the medium was replaced by fresh DMEM w/o serum containing one concentration of the endogenous ligand CXCL11 (100 nM) or the positive allosteric modulators (10 µM) and incubated for 1h at 37°C. The cells were fixed with 4% formaldehyde solution and stained with monoclonal Anti-Flag antibody (Sigma-Aldrich Life Science, St. Louis, MO) and subsequently with Anti-Mouse IgG-Peroxidase Antibody produced in rabbit. […] The reaction was stopped with 1M H2SO4 and the resulting color was detected at 492 nm using a microplate reader Clariostar (BMG labtech, Ortenberg, Germany).
The effect of FAUC1036 on receptor internalization was investigated by scanning laser confocal microscopy and ELISA-based assay. […] The quantification of receptor internalization upon the treatment with the endogenous agonists and with either β-arrestin 2 biased FAUC1036 or G-protein biased FAUC1104 was performed with ELISA based assay. The HEK293T cells transiently expressing FLAG-CXCR3 were stimulated with compounds and chemokines for one hour, washed, fixed and the amount of FLAG-CXCR3 present on the surface was detected by anti-FLAG antibody.

Row | SMILES | CXCR3 Efficacy (%) ± SEM (CXCR3) | CXCR3 mediated G protein activation (result in words) (CXCR3; listed as 11/FAUC1036) | CXCR3 mediated G protein activation (result in words) (CXCR3; listed as FAUC1036) | CXCR3 pEC50 ± SEM (CXCR3) | receptor internalization (ELISA quantification) (FLAG-CXCR3) | CXCR3 Efficacy (%) ± SEM (CXCR3; listed as 14/FAUC1104) | CXCR3 Efficacy (%) ± SEM (CXCR3; listed as FAUC1104) | CXCR3 pEC50 ± SEM (CXCR3; listed as 14/FAUC1104) | CXCR3 pEC50 ± SEM (CXCR3; listed as FAUC1104) | Emax (CXCR3; read-out: CXCR3 Efficacy (%) ± SEM)
1 | CC(C)(C)OC(=O)N[C@@H](CCCCNC(=O)[C@@H]1Cc2ccccc2CN1C(=O)CCC(=O)c1ccccc1)C(=O)NCC(c1ccccc1)c1ccccc1 [Compound 11, Tert-butyl ((S)-1-((2,2-diphenylethyl)amino)-1-oxo-6-((S)-2-(4-oxo-4-phenylbutanoyl)-1,2,3,4-tertahydroisoquinoline-3-carboxamido)hexan-2-yl)carbamate] | No effect | failed to induce CXCR3 mediated G protein activation | without any activation of G proteins; also recorded: has no effect on the G-protein signalling | No effect | induced receptor internalization | – | – | – | – | –
2 | COc1ccc(C(=O)CCC(=O)N2Cc3ccccc3C[C@H]2C(=O)NCCCC[C@H](NC(=O)OC(C)(C)C)C(=O)NCC(c2ccccc2)c2ccccc2)cc1 [Compound 14, Tert-butyl ((S)-1-((2,2-diphenylethyl)amino)-6-((S)-2-(4-(4-methoxyphenyl)-4-oxobutanoyl)-1,2,3,4-tetrahydroisoquinoline-3-carboxamido)-1-oxohexan-2-yl)carbomate] | – | – | – | – | does not induce receptor internalization | 50±19% | 50% | 5.22±0.31 | 5.22 | 50%
